Test system: platelets
Assay: Platelets aggregation inhibitory activity (method of Born et al.), ADP-induced, human PRP (Pharmacological Test I)
Format: cell-based, man
Conditions: Homo sapiens, Platelet, 7.5 μM ADP, 37° C., read-out: IC50 ADP (50% platelets aggregation inhibition)
Experimental: (§1) The platelets aggregation inhibitory activity of each test compound was measured by the method of Born et al. [J. Physiol., London, 162, 67 (1962)], using Platelets Aggregation Tracer manufactured by Nikoh Bioscience Co., Ltd.
(§2) 9 volumes of a blood collected from person was mixed with 1 volume of a 3.8% aqueous sodium citrate solution. Part of the mixture was subjected to centrifugation at 1,100 rpm for 10 minutes to obtain a platelet rich plasma (PRP). The remainder of the mixture was also subjected to centrifugation at 3,000 rpm for 10 minutes to obtain a platelet poor plasma (PPP).
(§3) The number of platelets in the PRP was measured using Coulter Counter manufactured by Coulter Electronics Inc. Then, the PRP was diluted with the PPP so that the number of platelets in the dilution became 300,000, whereby a PRP solution was prepared.
(§4) 200 μl of this PRP solution and 2 ml of a solution containing a test compound at a given concentration were placed in an aggregation measurement cell and heated at 37° C. for 1 minute. Thereto was added 20 μl of adenosine diphosphate (ADP manufactured by Sigma Co.) or a collagen suspension (Collagen Reagent manufactured by Horm, Hormon-Chemie, Gmbh) to induce aggregation of platelets. The resulting mixture in the cell was measured for change of transmittance, after which a platelets aggregation curve was prepared. Incidentaly, the concentration of ADP or collagen was selected so that the final Concentration became 7.5 μM or 20 μg/ml.
(§5) Using the platelets aggregation curve, there was calculated a maximum aggregation rate (MAR) of platelets using the followoing formula: […]
(§6) wherein a represents a transmittance of the PRP obtained in the same manner; c represents a transmittance of the PPP obtained in the same manner; and b represents a transmittance at the maximum change, of the PRP solution containng the test compound and the aggregation inducer.
(§7) A MAR was also calculated as above, for the control containing no test compound.
(§8) Using the above two MARs, there were calculated platelets aggregation inhibitions (%) of each test compound at various concentrations using the following formula.
(§9) Inhibition=[1-(MAR of PRP solution containing test compound)/(MAR of PRP
(§10) solution containing no test compound)]×100
(§11) Using the above obtained platelets aggregation inhibitions (%) of each test compound at various concentrations, there was calculated a concentration (IC50) of each test compound for 50% platelets aggregation inhibition.

| SMILES | IC50 |
| --- | --- |
| O=C(CN(CCCCOc1ccc2[nH]c(=O)ccc2c1)CC1CCCCCCC1)N1CCC(O)CC1 [Example 19] | 6.1 µM |
| O=c1ccc2cc(OCCCCN(CCN3CCC(O)CC3)S(=O)(=O)CC3CCCCC3)ccc2[nH]1 [Example 130] | 14 µM |
| O=c1ccc2cc(OCCCCN(CCN3CCC(O)CC3)c3ccccc3)ccc2[nH]1 [Example 27] | 6.7 µM |
| O=c1ccc2cc(OCCCCN(Cc3ccccc3)S(=O)(=O)CCCn3cncn3)ccc2[nH]1 [Example 123] | 17 µM |
| O=c1ccc2cc(OCCCS(=O)(=O)N(CCN3CCC(O)CC3)C3CCCCC3)ccc2[nH]1 [Example 86] | 8 µM |
| O=c1ccc2cc(OCCCCCN(CCO)Cc3ccccc3)ccc2[nH]1 [Example 67] | 4.5 µM |
| O=c1ccc2cc(OCCCCS(=O)(=O)N(CCN3CCC[C@H]3CO)CC3CCCCC3)ccc2[nH]1 [Example 104] | 3.5 µM |
| O=c1ccc2cc(OCCCS(=O)(=O)N(CCN3CCCCC3)CC3CCCCCCC3)ccc2[nH]1 [Example 97] | 14 µM |
| O=C(CN1CCC(O)CC1)N(CCCCOc1ccc2[nH]c(=O)ccc2c1)CC1CCCCCCC1 [Example 21] | 4.2 µM |
| O=c1ccc2cc(OCCCCN(Cc3ccccc3)S(=O)(=O)CCN3CCC(O)CC3)ccc2[nH]1 [Example 119] | 20 µM |
| O=c1ccc2cc(OCCCCS(=O)(=O)N(CCN3CCC(O)CC3)CC3CCCCCCC3)ccc2[nH]1 [Example 79] | 1.3 µM |
| O=C(NCC1CCCCC1)[C@@H]1C[C@@H](O)CN1CCCCOc1ccc2[nH]c(=O)ccc2c1 [Example 75] | 9.1 µM |

Test system: platelets
Assay: Inhibition of collagen-induced platelets adhesion, washed platelets (Pharmacological Test III)
Format: cell-based, man
Conditions: Platelet; dose 10 μM; 50 μg/ml collagen; human washed platelets; read-out: Inhibition (%) of collagen-induced platelets adherence
Experimental: A blood was collected from a healthy person with normal platelets function by addition of 0.1% disodium ethylenediaminetetraacetate (EDTA.4Na) and immediately subjected to separation of a platelet rich plasma (PRP). The PRP was washed twice with a Tyrode's buffer solution (50mM TRIS, 0.1% EDTA, Ca (-), Mg (-), 0.14% BSA added, pH=7.4), and suspended in the buffer solution so that the number of platelets in the resulting suspension became 300, 000/ml, to obtain a platelets suspension (EDTA-WP). 4 mg of Type I manufactured by Sigma Co., derived from a bovine skin was dissolved in 0.25 ml of acetic acid (83.5 mM); 8 ml of distilled water was added thereto; an ultrasonic wave was applied to the mixture at 4° C. for 2 minutes; 5 ml of the supernatant liquid was separated as a collagen solution. Each test compound was dissolved in dimethylformamide (DMF) so as to give a concentration of at least […] when possible, to prepare a test compound solution. The change in turbidity of platelets suspension was recorded as a change in transmitted light emitted from a glass cell containing the suspension, using a platelets aggregation tracer manufactured by Nikoh Bioscience K.K., generally used in the test of platelets aggregation function, whereby the adherence of platelets was measured. Incidentally, in recoridng the change in transmitted light, the sensitivity of the recorder was 5 times as high as that used generally. 200 μl of the EDTA-WP was placed in a glass cell exclusively used for the above platelets aggregation tester. Further, 1 μl of the test compound solution was added. The mixture was incubated at room temperature for 5 minutes. Then, the cell was set in the platelets aggregation tracer and was allowed to stand for 1 minute until the temperature became 37° C. Thereafter, about 20 μl (50 μg/ml) of the collagen solution was added, and the adherence of platelets were measured.
The inhibitions (%) of collagen-induced platelets adhesion by each test compound at various concentrations were calculated using the following formula.
Inhibition (%)=[1-(platelets adherence when test compound added)/
(platelets adherence when no test compound added)]×100

| SMILES | inhibition at 10 µM |
| --- | --- |
| O=c1ccc2ccc(OCCCCN(CCN3CCC(O)CC3)CC3CCCCCCC3)cc2[nH]1 [Example 134] | 45% |
| O=c1ccc2cc(OCCCCN(CCN3CCC(O)CC3)Cc3ccccc3)ccc2[nH]1 [Example 28] | 48% |
| O=c1ccc2cc(OCCCCN(CCN3CCC(O)CC3)S(=O)(=O)CC3CCCCC3)ccc2[nH]1 [Example 130] | 43% |
| O=c1ccc2cc(OCCCCN(Cc3ccccc3)S(=O)(=O)CCCn3cncn3)ccc2[nH]1 [Example 123] | 39% |
| O=c1ccc2cc(OCCCS(=O)(=O)N(CCN3CCC(O)CC3)C3CCCCC3)ccc2[nH]1 [Example 86] | 47% |
| O=c1ccc2cc(OCCCCN(Cc3ccccc3)S(=O)(=O)CCN3CCC(O)CC3)ccc2[nH]1 [Example 119] | 40% |

Same assay, conditions: Platelet; dose 30 μM; 50 μg/ml collagen; human washed platelets; read-out: Inhibition (%) of collagen-induced platelets adherence

| SMILES | inhibition at 30 µM |
| --- | --- |
| CN(C1CCCCC1)S(=O)(=O)CCCOc1ccc2[nH]c(=O)ccc2c1 [Example 76] | 35% |
| O=c1ccc2cc(OCCCCN(Cc3ccccc3)S(=O)(=O)CCn3cncn3)ccc2[nH]1 [Example 121] | 38% |
| O=c1ccc2cc(OCCCCN(CCN3CCC(O)CC3)c3ccccc3)ccc2[nH]1 [Example 27] | 40% |

Same assay, conditions: Platelet; dose 300 μM; 50 μg/ml collagen; human washed platelets; read-out: Inhibition (%) of collagen-induced platelets adherence

| SMILES | inhibition at 300 µM |
| --- | --- |
| O=C(NCC1CCCCC1)[C@@H]1C[C@@H](O)CN1CCCCOc1ccc2[nH]c(=O)ccc2c1 [Example 75] | 57% |

Test system: platelets
Assay: Platelets aggregation inhibitory activity (method of Born et al.), collagen-induced, human PRP (Pharmacological Test I)
Format: cell-based, man
Conditions: Homo sapiens, Platelet, 20 μg/ml collagen, 37° C., read-out: IC50 Collagen (50% platelets aggregation inhibition)
Experimental: as §1, §2, §3, §4, §5, §6, §7, §8, §9, §10, §11

| SMILES | IC50 |
| --- | --- |
| O=C(CN(CCCCOc1ccc2[nH]c(=O)ccc2c1)CC1CCCCCCC1)N1CCC(O)CC1 [Example 19] | 5.3 µM |
| O=c1ccc2cc(OCCCCN(CCN3CCC(O)CC3)S(=O)(=O)CC3CCCCC3)ccc2[nH]1 [Example 130] | 13 µM |
| O=c1ccc2cc(OCCCCN(CCN3CCC(O)CC3)c3ccccc3)ccc2[nH]1 [Example 27] | 7.7 µM |
| O=c1ccc2cc(OCCCCN(Cc3ccccc3)S(=O)(=O)CCCn3cncn3)ccc2[nH]1 [Example 123] | 9.5 µM |
| O=c1ccc2cc(OCCCS(=O)(=O)N(CCN3CCC(O)CC3)C3CCCCC3)ccc2[nH]1 [Example 86] | 12 µM |
| O=c1ccc2cc(OCCCCCN(CCO)Cc3ccccc3)ccc2[nH]1 [Example 67] | 2.9 µM |
| O=c1ccc2cc(OCCCCS(=O)(=O)N(CCN3CCC[C@H]3CO)CC3CCCCC3)ccc2[nH]1 [Example 104] | 2.3 µM |
| O=c1ccc2cc(OCCCS(=O)(=O)N(CCN3CCCCC3)CC3CCCCCCC3)ccc2[nH]1 [Example 97] | 18 µM |
| O=C(CN1CCC(O)CC1)N(CCCCOc1ccc2[nH]c(=O)ccc2c1)CC1CCCCCCC1 [Example 21] | 3.1 µM |
| O=c1ccc2cc(OCCCCN(Cc3ccccc3)S(=O)(=O)CCN3CCC(O)CC3)ccc2[nH]1 [Example 119] | 20 µM |
| O=c1ccc2cc(OCCCCS(=O)(=O)N(CCN3CCC(O)CC3)CC3CCCCCCC3)ccc2[nH]1 [Example 79] | 2.5 µM |
| O=C(NCC1CCCCC1)[C@@H]1C[C@@H](O)CN1CCCCOc1ccc2[nH]c(=O)ccc2c1 [Example 75] | 13 µM |

Molecular target: T1, cyclic AMP phosphodiesterase (Homo sapiens, UniProt Q14432)
T1 construct: the resulting supernatant liquid was used as a crude enzyme solution; from tissue; host or cells: human platelets (from platelet-rich plasma)
Assay: Cyclic AMP phosphodiesterase inhibitory activity, enzyme from human platelets (Pharmacological Test IV)
Format: biochemical, man
Conditions: 0.4 μM cyclic AMP substrate, 30° C., 20 minutes, human platelet enzyme; read-out: IC50 (50% phosphodiesterase inhibition concentration)

T1 sequence (Q14432 whole entry): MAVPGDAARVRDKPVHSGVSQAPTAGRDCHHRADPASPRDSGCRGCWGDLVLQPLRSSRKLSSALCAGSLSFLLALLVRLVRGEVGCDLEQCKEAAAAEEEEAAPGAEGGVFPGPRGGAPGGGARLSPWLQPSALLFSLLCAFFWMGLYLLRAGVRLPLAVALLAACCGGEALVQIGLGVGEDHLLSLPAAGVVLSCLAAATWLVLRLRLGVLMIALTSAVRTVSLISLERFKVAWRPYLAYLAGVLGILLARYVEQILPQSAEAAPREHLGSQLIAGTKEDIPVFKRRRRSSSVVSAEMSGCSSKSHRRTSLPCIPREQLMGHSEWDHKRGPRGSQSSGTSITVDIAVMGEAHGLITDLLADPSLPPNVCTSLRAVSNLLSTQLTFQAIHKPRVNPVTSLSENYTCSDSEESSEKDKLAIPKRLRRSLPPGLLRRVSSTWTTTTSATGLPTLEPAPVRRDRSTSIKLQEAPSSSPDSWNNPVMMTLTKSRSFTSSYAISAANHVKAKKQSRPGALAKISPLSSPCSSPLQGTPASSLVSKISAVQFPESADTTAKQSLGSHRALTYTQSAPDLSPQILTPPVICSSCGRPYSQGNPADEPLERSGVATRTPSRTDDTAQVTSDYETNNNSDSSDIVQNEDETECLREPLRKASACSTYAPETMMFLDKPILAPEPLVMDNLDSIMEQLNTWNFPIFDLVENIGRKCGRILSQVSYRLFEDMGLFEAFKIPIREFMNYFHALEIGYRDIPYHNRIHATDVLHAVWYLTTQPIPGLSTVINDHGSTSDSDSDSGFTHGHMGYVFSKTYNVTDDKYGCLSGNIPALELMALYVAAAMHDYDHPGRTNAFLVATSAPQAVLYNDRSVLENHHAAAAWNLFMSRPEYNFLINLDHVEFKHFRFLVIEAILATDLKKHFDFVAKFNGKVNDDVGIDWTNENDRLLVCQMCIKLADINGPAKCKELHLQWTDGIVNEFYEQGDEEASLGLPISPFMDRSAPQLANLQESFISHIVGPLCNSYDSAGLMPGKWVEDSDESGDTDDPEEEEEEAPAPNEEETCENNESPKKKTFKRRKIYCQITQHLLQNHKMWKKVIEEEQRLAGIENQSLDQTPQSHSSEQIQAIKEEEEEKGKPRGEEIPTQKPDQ

| IC50 | SMILES |
| --- | --- |
| 0.49 µM | O=c1ccc2ccc(OCCCCN(CCN3CCC(O)CC3)CC3CCCCCCC3)cc2[nH]1 [Example 134] |
| 0.48 µM | O=c1ccc2cc(OCCCCN(CCN3CCC(O)CC3)Cc3ccccc3)ccc2[nH]1 [Example 28] |

| SMILES | IC50 |
| --- | --- |
| O=c1ccc2cc(OCCCCS(=O)(=O)N(CCN3CCC(O)CC3)CC3CCCCCCC3)ccc2[nH]1 [Example 79] | < 0.1 µM |

Test system: mongrel dogs
Assay: not given
Conditions: dog, in vivo, 300 mg/kg
Experimental: The heart rate-increasing activity and blood pressure hypotensive activity of each test compound were measured by the following method, using mongrel dogs each weighing 10-20 kg. That is, said dogs were anesthesized by intravenous injection of pentobarbital sodium, then fixed at the back, and tested under artificial respiration. The blood pressures of the dogs were measured by a blood pressure measuring transducer (P23×L manufactured by Gould Statham Instruments, Inc.) via cannula inserted into the femoral artery. The heart rates of the dogs were measured using the pulse wave of the blood pressure of each dog, via a tachometer. The signals of these testng apparatuses were recorded on a thermal pen-type recorder (Recti-Horize 8K manufactured by Nippon Denki-San-ei Sha).
Some of the compounds obtained in the above Examples were used as test compounds. […] Then, the heart rate of each dog was measured according to the above method and a maximum change in heart rate was calculated.

| SMILES | Maximum change in heart rate |
| --- | --- |
| O=c1ccc2cc(OCCCCN(CCN3CCC(O)CC3)Cc3ccccc3)ccc2[nH]1 [Example 28] | 0 beats/minute |
| O=C(CN(CCCCOc1ccc2[nH]c(=O)ccc2c1)CC1CCCCCCC1)N1CCC(O)CC1 [Example 19] | 24 beats/minute |
| O=c1ccc2cc(OCCCCN(CCN3CCC(O)CC3)c3ccccc3)ccc2[nH]1 [Example 27] | 7 beats/minute |

From US5506239A, “Carbostyril derivative and platelets aggregation inhibitory agent” (Otsuka Pharmaceutical Co., Ltd., priority 1991, dated 1996)
